One assay concerns the target BACE1 enzyme (Homo sapiens (Human), UniProt P56817). Nature of the assay: BACE1 Cell-Free Assay (fluorescence polarization).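 For all read-outs here: Affinity-purified soluble BACE1 from transfected CHO-K1 cells cleaving a biotinylated, Oregon Green-labelled synthetic APP peptide, 3 h at 37 °C, cleavage followed by fluorescence polarization change.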 The class given is biochemical. The settings on record: for IC50: geometric mean of 2-3 determinations (Ex. 2: ≧6 determinations); for biological activity (in words, see Table 3): statement used to assign absolute stereochemistry, refers to Table 3.

Assay [1] deals with sAPPβ levels in H4 human neuroglioma cells over-expressing the wild-type human APP695. Nature of the assay: Whole Cell Assay (In Vitro sAPPb Assay). The class given is cell-based. Conditions: 18 hours, geometric mean of 2-3 determinations (Ex. 2: ≧6 determinations).
Another assay concerns the target BACE2 enzyme (Homo sapiens (Human), UniProt Q9Y5Z0). Nature of the assay: BACE2 Assay (cell-free, fluorescence polarization). The settings on record: single determination. Format: biochemical. The method, then: This assay measures the inhibition of the BACE2 enzyme as it cleaves a non-native peptide. A synthetic substrate that can be cleaved by BACE2 having N-terminal biotin and made fluorescent by the covalent attachment of Oregon Green at the Cys residue is used to assay BACE2 activity in the presence or absence of the inhibitory compounds. The substrate is Biotin-[…]-C(Oregon green)-KK-OH. The BACE2 enzyme is available from Enzo Life Sciences (Cat # BML-SE550). Compounds are incubated in a ½ log dose response curve from a top concentration of 100 μM with BACE2 enzyme and the biotinylated fluorescent peptide in 384-well black plates (Thermo Scientific #4318). BACE2 is at a final concentration of 2.5 nM with a final concentration of peptide substrate of 150 nM in a reaction volume of 30 μL assay buffer (100 mM sodium acetate, pH 4.5 (brought to pH with acetic acid), and 0.001% Tween-20). Plates are covered and incubated for 3 hours at 37° C. The reaction is stopped with the addition of 30 μL of 1.5 μM Streptavidin (Pierce, #21125). After a 10 minute incubation at room temperature, plates are read on a PerkinElmer EnVision for fluorescence polarization (Ex485 nm/Em530 nm). The activity of the beta-secretase enzyme is detected by changes in the fluorescence polarization that occur when the substrate is cleaved by the enzyme.

Counter-ions that a name gives are not always drawn.

BACE1 enzyme, sequence (P56817 46-457): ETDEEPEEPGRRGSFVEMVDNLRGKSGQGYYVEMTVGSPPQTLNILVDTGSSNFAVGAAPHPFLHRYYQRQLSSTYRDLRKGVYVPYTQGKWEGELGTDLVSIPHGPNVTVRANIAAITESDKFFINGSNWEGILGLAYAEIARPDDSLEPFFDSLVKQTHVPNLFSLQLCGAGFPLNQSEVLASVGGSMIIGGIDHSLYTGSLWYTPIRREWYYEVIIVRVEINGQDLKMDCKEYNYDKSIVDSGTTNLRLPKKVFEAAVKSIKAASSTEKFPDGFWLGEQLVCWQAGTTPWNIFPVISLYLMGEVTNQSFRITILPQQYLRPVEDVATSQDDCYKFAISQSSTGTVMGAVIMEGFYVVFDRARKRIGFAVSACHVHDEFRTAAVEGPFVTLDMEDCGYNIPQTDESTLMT
BACE2 enzyme, sequence (Q9Y5Z0 63-518): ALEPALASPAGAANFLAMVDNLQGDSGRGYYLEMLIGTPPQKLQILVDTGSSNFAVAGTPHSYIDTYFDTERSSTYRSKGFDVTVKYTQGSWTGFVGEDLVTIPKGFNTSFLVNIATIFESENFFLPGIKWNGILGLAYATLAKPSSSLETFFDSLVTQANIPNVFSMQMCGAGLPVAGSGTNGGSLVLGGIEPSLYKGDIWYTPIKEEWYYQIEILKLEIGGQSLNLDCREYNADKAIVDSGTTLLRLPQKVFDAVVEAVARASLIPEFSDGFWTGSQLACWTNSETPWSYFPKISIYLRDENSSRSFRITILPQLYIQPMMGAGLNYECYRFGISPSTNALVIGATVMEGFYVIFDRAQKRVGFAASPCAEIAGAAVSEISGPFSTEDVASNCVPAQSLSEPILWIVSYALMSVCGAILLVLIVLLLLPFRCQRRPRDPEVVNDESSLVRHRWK

Take `NC1=N[C@@]2(c3ccccc3)CO[C@@H](C3CC3)C[C@H]2CS1` [Example 14, (4aR,6R,8aS)-6-Cyclopropyl-8a-phenyl-4,4a,5,6,8,8a-hexahydropyrano[3,4-d][1,3]thiazin-2-amine]: the IC50 (usually the midpoint of a concentration-inhibition curve) was 1280 nM against BACE1 enzyme and 142 nM in assay [1] (Homo sapiens).

Turning to `NC1=N[C@]2(c3ccc(F)cc3F)CO[C@H](C3CC3)C[C@@H]2CS1` [Example C23, (4aS,6S,8aR)-6-cyclopropyl-8a-(2,4-difluorophenyl)-4,4a,5,6,8,8a-hexahydropyrano[3,4-d][1,3]thiazin-2-amine], the “biological activity (in words, see Table 3)” value (from here on “biological activity”) at BACE1 enzyme is “essentially inactive”. The same compound registered an IC50 in assay [1] of 17300 nM.

Consider `NC1=N[C@@]2(c3ccc(F)cc3F)CO[C@@H](C3CCCO3)C[C@H]2CS1` (stereo partly drawn) [Example 1, (4aR,6R,8aS)-8a-(2,4-Difluorophenyl)-6-(tetrahydrofuran-2-yl)-4,4a,5,6,8,8a-hexahydropyrano[3,4-d][1,3]thiazin-2-amine, trifluoroacetate salt], for which the IC50 at BACE2 enzyme was found to be 1290 nM; at BACE1 enzyme, 447 nM; in assay [1] (Homo sapiens), 73.8 nM.

On to `NC1=N[C@@]2(c3ccccc3F)CO[C@@H](C3CC3)C[C@H]2CS1` [Example 13, (4aR,6R,8aS)-6-Cyclopropyl-8a-(2-fluorophenyl)-4,4a,5,6,8,8a-hexahydropyrano[3,4-d][1,3]thiazin-2-amine], for which the results for the IC50 (on BACE1 enzyme; in assay [1] (Homo sapiens)) were 422 nM and 40 nM, respectively.

Regarding `NC1=N[C@@]2(c3cc(F)ccc3F)CO[C@@H](C3CC3)C[C@H]2CS1` [Example 11, (4aR,6R,8aS)-6-Cyclopropyl-8a-(2,5-difluorophenyl)-4,4a,5,6,8,8a-hexahydropyrano[3,4-d][1,3]thiazin-2-amine], the figures for the IC50 (at BACE1 enzyme; in assay [1] (Homo sapiens)) were 1420 nM and 85.1 nM, respectively.

For `NC1=N[C@@]2(c3ccc(F)cc3F)CO[C@@H](C3CCO3)C[C@H]2CS1` (stereo partly drawn) [Example 4, (4aR,6R,8aS)-8a-(2,4-Difluorophenyl)-6-(oxetan-2-yl)-4,4a,5,6,8,8a-hexahydropyrano[3,4-d][1,3]thiazin-2-amine], the IC50 against BACE1 enzyme amounted to 1310 nM; in assay [1] (Homo sapiens), 137 nM.

Consider `CC1(C)CCC([C@H]2C[C@H]3CSC(N)=N[C@@]3(c3ccc(F)cc3F)CO2)O1` (stereo partly drawn) [Example 19, (4aR,6R,8aS)-8a-(2,4-Difluorophenyl)-6-(5,5-dimethyltetrahydrofuran-2-yl)-4,4a,5,6,8,8a-hexahydropyrano[3,4-d][1,3]thiazin-2-amine], for which the IC50 at BACE1 enzyme came to 184 nM; in assay [1] (Homo sapiens), 17.9 nM.

Consider `NC1=N[C@]2(c3ccc(F)cc3F)CO[C@H](CC3CC3)C[C@@H]2CS1` [Example C74, (4aS,6R,8aR)-6-(cyclopropylmethyl)-8a-(2,4-difluorophenyl)-4,4a,5,6,8,8a-hexahydropyrano[3,4-d][1,3]thiazin-2-amine], for which, at BACE1 enzyme, the IC50 is greater than 86000 nM and the “biological activity” value is “essentially inactive”. The IC50 in assay [1] (Homo sapiens) worked out at 7400 nM.

`NC1=N[C@]2(c3ccccc3F)CO[C@H](C3CC3)C[C@@H]2CS1` [Example 17, (4aS,6S,8aR)-6-Cyclopropyl-8a-(2-fluorophenyl)-4,4a,5,6,8,8a-hexahydropyrano[3,4-d][1,3]thiazin-2-amine]: the IC50 came to 25700 nM against BACE1 enzyme and 1560 nM in assay [1] (Homo sapiens).

On to `C[C@@H]1C[C@H]1[C@H]1C[C@H]2CSC(N)=N[C@@]2(c2ccc(F)cc2F)CO1` [Example 20, (4aR,6R,8aS)-8a-(2,4-Difluorophenyl)-6-[(1R,2R)-2-methylcyclopropyl]-4,4a,5,6,8,8a-hexahydropyrano[3,4-d][1,3]thiazin-2-amine], for which the figures for the IC50 (against BACE1 enzyme; in assay [1] (Homo sapiens)) were 116 nM and 16.2 nM, respectively.

Regarding `Cc1ccc([C@]23CO[C@@H](C4CC4)C[C@H]2CSC(N)=N3)c(F)c1` [Example 15, (4aR,6R,8aS)-6-Cyclopropyl-8a-(2-fluoro-4-methylphenyl)-4,4a,5,6,8,8a-hexahydropyrano[3,4-d][1,3]thiazin-2-amine], the half-inhibitory concentration (IC50) was 715 nM at BACE1 enzyme and 72.1 nM in assay [1] (Homo sapiens).

Regarding `CC1([C@H]2C[C@H]3CSC(N)=N[C@@]3(c3ccc(F)cc3F)CO2)CC1` [Example 7, (4aR,6R,8aS)-8a-(2,4-Difluorophenyl)-6-(1-methylcyclopropyl)-4,4a,5,6,8,8a-hexahydropyrano[3,4-d][1,3]thiazin-2-amine], the concentration for half-maximal inhibition (IC50) amounted to 484 nM against BACE1 enzyme and 142 nM in assay [1] (Homo sapiens).

Turning to `NC1=N[C@@]2(c3ccc(F)cc3F)CO[C@@H](CC3CC3)C[C@H]2CS1` [Example 8, (4aR,6S,8aS)-6-(Cyclopropylmethyl)-8a-(2,4-difluorophenyl)-4,4a,5,6,8,8a-hexahydropyrano[3,4-d][1,3]thiazin-2-amine], the half-inhibitory concentration (IC50) against BACE1 enzyme stood at 235 nM; in assay [1] (Homo sapiens), 61.2 nM.

As for `Cl.NC1=N[C@]2(c3ccc(F)cc3F)CO[C@H](C3CC3)C[C@@H]2[C@H](CF)S1` [Example C48, (4R,4aS,6S,8aR)-6-cyclopropyl-8a-(2,4-difluorophenyl)-4-(fluoromethyl)-4,4a,5,6,8,8a-hexahydropyrano[3,4-d][1,3]thiazin-2-amine, hydrochloride salt], the half-inhibitory concentration (IC50) against BACE1 enzyme was greater than 100000 nM; in assay [1] (Homo sapiens), greater than 30000 nM. The “biological activity” value at BACE1 enzyme was “inactive”.

For `NC1=N[C@@]2(c3c(F)cccc3F)CO[C@@H](C3CC3)C[C@H]2CS1` [Example 12, (4aR,6R,8aS)-6-Cyclopropyl-8a-(2,6-difluorophenyl)-4,4a,5,6,8,8a-hexahydropyrano[3,4-d][1,3]thiazin-2-amine], the figures for the IC50 (at BACE1 enzyme; in assay [1] (Homo sapiens)) were 395 nM and 34.6 nM, respectively.

On to `COC[C@H]1SC(N)=N[C@@]2(c3ccc(F)cc3F)CO[C@@H](C3CC3)C[C@@H]12` (racemic) [Example 5, rel-(4S,4aR,6R,8aS)-6-Cyclopropyl-8a-(2,4-difluorophenyl)-4-(methoxymethyl)-4,4a,5,6,8,8a-hexahydropyrano[3,4-d][1,3]thiazin-2-amine, hydrochloride salt], for which the results for the IC50 (at BACE1 enzyme; in assay [1] (Homo sapiens)) were 1410 nM and 116 nM, respectively.

`NC1=N[C@@]2(c3ccc(F)cc3F)CO[C@@H](C3CC3)C[C@H]2[C@@H](CF)S1` [Example 6, (4S,4aR,6R,8aS)-6-Cyclopropyl-8a-(2,4-difluorophenyl)-4-(fluoromethyl)-4,4a,5,6,8,8a-hexahydropyrano[3,4-d][1,3]thiazin-2-amine, hydrochloride salt]: the figures for the IC50 (on BACE1 enzyme; in assay [1] (Homo sapiens)) were 346 nM and 39.1 nM, respectively.

Regarding `NC1=N[C@@]2(c3ccc(F)cc3F)CO[C@@H]([C@@H]3CCCO3)C[C@H]2CS1` [Example 21, (4aR,6R,8aS)-8a-(2,4-Difluorophenyl)-6-[(2S)-tetrahydrofuran-2-yl]-4,4a,5,6,8,8a-hexahydropyrano[3,4-d][1,3]thiazin-2-amine], the results for the 50% inhibitory concentration (IC50) (against BACE1 enzyme; in assay [1] (Homo sapiens)) were 302 nM and 39.7 nM, respectively.

`NC1=N[C@]2(c3ccc(F)cc3)CO[C@H](C3CC3)C[C@@H]2CS1` [Example 18, (4aS,6S,8aR)-6-Cyclopropyl-8a-(4-fluorophenyl)-4,4a,5,6,8,8a-hexahydropyrano[3,4-d][1,3]thiazin-2-amine]: the 50% inhibitory concentration (IC50) worked out at 15600 nM against BACE1 enzyme and 2220 nM in assay [1] (Homo sapiens).

For the compound `NC1=N[C@@]2(c3ccc(F)cc3)CO[C@@H](C3CC3)C[C@H]2CS1` [Example 10, (4aR,6R,8aS)-6-Cyclopropyl-8a-(4-fluorophenyl)-4,4a,5,6,8,8a-hexahydropyrano[3,4-d][1,3]thiazin-2-amine], the IC50 against BACE1 enzyme came to 572 nM; in assay [1] (Homo sapiens) it was 89.7 nM.

Regarding `NC1=N[C@@]2(c3ccc(F)cc3F)CO[C@@H](C3CC3)C[C@H]2CS1` [Example 2, (4aR,6R,8aS)-6-Cyclopropyl-8a-(2,4-difluorophenyl)-4,4a,5,6,8,8a-hexahydropyrano[3,4-d][1,3]thiazin-2-amine], the IC50 against BACE2 enzyme was found to be 2260 nM; in assay [1] (Homo sapiens), 24.2 nM.

On to `Cc1ccc([C@]23CO[C@@H](C4CC4)C[C@H]2CSC(N)=N3)cc1F` [Example 16, (4aR,6R,8aS)-6-Cyclopropyl-8a-(3-fluoro-4-methylphenyl)-4,4a,5,6,8,8a-hexahydropyrano[3,4-d][1,3]thiazin-2-amine], for which the half-inhibitory concentration (IC50) worked out at 897 nM against BACE1 enzyme and 92.3 nM in assay [1] (Homo sapiens).

On to `CC1([C@@H]2C[C@@H]3CSC(N)=N[C@]3(c3ccc(F)cc3F)CO2)CC1` [Example C61, (4aS,6S,8aR)-8a-(2,4-difluorophenyl)-6-(1-methylcyclopropyl)-4,4a,5,6,8,8a-hexahydropyrano[3,4-d][1,3]thiazin-2-amine], for which the 50% inhibitory concentration (IC50) is 37000 nM on BACE1 enzyme and 2890 nM in assay [1] (Homo sapiens). In addition, the “biological activity” value at BACE1 enzyme is “essentially inactive”.

As to `NC1=N[C@@]2(c3c(F)cc(F)cc3F)CO[C@@H](C3CC3)C[C@H]2CS1` [Example 9, (4aR,6R,8aS)-6-Cyclopropyl-8a-(2,4,6-trifluorophenyl)-4,4a,5,6,8,8a-hexahydropyrano[3,4-d][1,3]thiazin-2-amine], the values for the IC50 (against BACE1 enzyme; in assay [1] (Homo sapiens)) were 1050 nM and 57.2 nM, respectively.

Source of the values: patent US9403846B2, “Carbocyclic- and heterocyclic-substituted hexahydropyrano[3,4-d][1,3]thiazin-2-amine compounds” (Pfizer Inc., priority 2012, dated 2016).
